These are literature values, as cited in patent US10399920B2, “Crystalline form of cannabidiol” (S&B Pharma, Inc., priority 2016, dated 2019).

The subject of the series is epilepsy. The conditions noted are these: animal studies; dosed at 50 and 100 mg/kg intra-peritoneally; Cannabidiol prepared by non-synthetic methods.

Molecules are shown by their SMILES.

For `C=C(C)[C@@H]1CCC(C)=C[C@H]1c1c(O)cc(CCCCC)cc1O` [Cannabidiol], the reducing mortality entry is “effective in reducing mortality”.
